Patent publication US8835476B2, “Synthesis of novel antimicrobials” (priority 2005, dated 2014)

Target: T1, recombinant E. coli LpxA (Escherichia coli, UniProt P0A722)
T1 construct: 6xHis (C); made in house; host or cells: E. coli BL21 (pET23b)
Assay: LpxA assay: acyl-UDP-GlcNAc formation from UDP-[3H]GlcNAc, TLC
Format: biochemical
Conditions: 5 mM compound; FIG. 8
Source text: The lpxA gene was amplified from an E. coli genomic library and inserted into a pET23b vector using standard recombinant DNA methodology. The 5′ oligonucleotide for amplification of the LpxA open reading frame was 5′-[…]-3′ (SEQ ID NO. 1) and contains a BamHI restriction enzyme site upstream of the LpxA ATG start codon and the 3′ oligonucleotide was 5′-[…]-3′ (SEQ ID NO. 2) and contains a XhoI restriction enzyme site downstream of the final codon of the LpxA open reading frame. Primers were custom synthesized. The primers were designed such that digestion of the amplification product would result in addition of a C-terminal 6×-His tag in frame with the LpxA open reading frame. Specifically, E. coli genomic DNA was isolated and an amplification reaction was carried out as follows: 33 μl water, 5 μl 10× reaction buffer, 1.5 μl of 50 mM magnesium sulfate, 3 μl of 10 mM dNTPs, 3 μl of a 50 μM solution of the 5′ LpxA primer, 3 μl of a 50 μM solution of the 3′ LpxA primer, 0.5 μl of E. coli genomic DNA solution, and 1 μl of polymerase. The reaction conditions were as follows: 94° C. for 2 minutes; followed by 30 cycles of 94° C. for 30 seconds, 50° C. for 30 seconds, 68° C. for 1.5 minutes, followed by an extension at 68° C. for 7 minutes. The resulting LpxA product was separated from other DNA on a 0.8% agarose gel and isolated from the gel. The LpxA open reading frame was cloned into a topoisomerase I-activated vector and transformed into E. coli. […] The newly synthesized plasmid containing the BamHI- and XhoI-flanked LpxA open reading frame and plasmid pET23a were digested with BamHI and XhoI at 37° C. for 2 hours, DNA was separated by agarose gel electrophoresis, isolated from the gel, and ligated. Ligation reactions were transformed into chemically competent E. coli and plasmid DNA was isolated. Restriction mapping was performed to determine which plasmids contained the LpxA open reading frame. To remove the T7 epitope coding sequence from the 5′end of the LpxA open reading frame, the pET23a plasmid containing the LpxA open reading frame was digested with the restriction enzymes BamHI and XhoI and a pET23b plasmid was digested with BglII and XhoI, DNA was separated by agarose gel electrophoresis, isolated from the gel, and ligated. Ligation reactions were transformed into chemically competent E. coli and plasmid DNA was isolated. Restriction mapping was performed to assess plasmids containing the LpxA open reading frame.
A 5 ml culture of E. Coli BL21 cells expressing the LpxA-6×His plasmid was grown overnight at 37° C. in LB medium containing 50 μg/ml ampicillin and 34 μg/ml chloramphenicol, then subcultured into 500 ml of the same medium and grown at 37° C. until A600=0.6. LpxA expression was induced by addition of 0.5 mM IPTG for three hours. The cells were centrifuged at 7 000×g for 10 minutes at 4° C. and lysed using a mild, nonionic detergent. The soluble fraction containing LpxA was added to 1 ml of nickel affinity resin in a 15 ml Falcon tube; the resin was washed extensively with extraction/wash buffer (50 mM Na-phosphate (pH 7.0) and 300 mM NaCl) prior to use. This mixture was incubated on a rotating platform at low speed for 20 minutes at room temperature. The resin was centrifuged at 1000 rpm in a bench top centrifuge for 2 min, washed twice (10 min each) with 10 ml of extraction/wash buffer, resuspended in 10 ml of extraction/wash buffer, and transferred to a 10 ml polypropylene disposable protein purification column. The column was eluted with 5 ml of 50 mM Na-phosphate (pH 7.0) containing 300 mM NaCl and 150 mM imidazole, collected in 1 ml fractions. The eluate was analysed by SDS-PAGE and was visualised using a protein stain (FIG. 7 inset).
Recombinant Vibrio harveyi acyl carrier protein was prepared from a GST fusion protein as described previously (Flaman et al., 2001). […]

T1 sequence (P0A722 whole entry): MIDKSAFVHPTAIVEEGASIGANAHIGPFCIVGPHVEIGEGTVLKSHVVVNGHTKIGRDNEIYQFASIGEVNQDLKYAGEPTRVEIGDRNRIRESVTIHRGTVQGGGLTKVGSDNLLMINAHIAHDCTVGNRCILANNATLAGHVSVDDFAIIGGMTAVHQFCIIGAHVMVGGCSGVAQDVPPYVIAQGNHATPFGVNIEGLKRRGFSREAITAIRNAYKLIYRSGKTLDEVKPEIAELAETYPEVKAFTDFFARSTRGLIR

Compound	inhibition at 5000 µM [%]
O=C(O)c1cc(-c2nnn[nH]2)c(-c2cccc3ccccc23)s1 [DNM-121H, 5-(Naphthalen-1-yl)-4-(1H-tetrazol-5-yl)thiophene-2-carboxylic acid]	> 70
COc1cccc(-c2sc(C(=O)O)cc2-c2nnnn2C)c1 [DNM-122D, 5-(3-Methoxyphenyl)-4-(1-methyl-1H-tetrazol-5-yl)thiophene-2-carboxylic acid]	> 70
Cn1nnnc1-c1cc(C(=O)O)sc1-c1ccc(-c2ccccc2)cc1 [DNM-122G, 5-(4-biphenylyl)-4-(1-methyl-1H-tetrazol-5-yl)thiophene-2-carboxylic acid]	> 80
Cn1nnnc1-c1cc(C(=O)O)sc1-c1cccc2ccccc12 [DNM-122H, 5-(Naphthalen-1-yl)-4-(1-methyl-1H-tetrazol-5-yl)thiophene-2-carboxylic acid]	> 80
Cn1nnc(-c2cc(C(=O)O)sc2-c2cccc(F)c2)n1 [DNM-123A, 5-(3-Fluorophenyl)-4-(2-methyl-2H-tetrazol-5-yl)thiophene-2-carboxylic acid]	> 70
COc1cccc(-c2sc(C(=O)O)cc2-c2nnn(C)n2)c1 [DNM-123D, 5-(3-Methoxyphenyl)-4-(2-methyl-2H-tetrazol-5-yl)thiophene-2-carboxylic acid]	> 80
COc1ccc(-c2sc(C(=O)O)cc2-c2nnn(C)n2)cc1 [DNM-123E, 5-(4-Methoxyphenyl)-4-(2-methyl-2H-tetrazol-5-yl)thiophene-2-carboxylic acid]	> 70
COc1ccccc1-c1sc(C(=O)O)cc1-c1nnn(C)n1 [DNM-123F, 5-(2-Methoxyphenyl)-4-(2-Methyl-2H-tetrazol-5-yl)thiophene-2-carboxylic acid]	> 80
Cn1nnc(-c2cc(C(=O)O)sc2-c2ccc(-c3ccccc3)cc2)n1 [DNM-123G, 5-(4-biphenylyl)-4-(2-methyl-2H-tetrazol-5-yl)thiophene-2-carboxylic acid]	> 80
Cn1nnc(-c2cc(C(=O)O)sc2-c2cccc3ccccc23)n1 [DNM-123H, 5-(Naphthalen-1-yl)-4-(2-methyl-2H-tetrazol-5-yl)thiophene-2-carboxylic acid]	> 80
Cn1nnc(-c2cc(C(=O)O)sc2-c2ccccn2)n1 [DNM-123I, 5-(Pyridin-2-yl)-4-(2-methyl-2H-tetrazol-5-yl)thiophene-2-carboxylic acid]	> 70
CCOC(=O)c1cc(-c2nnn[nH]2)c(-c2cccc(F)c2)s1 [DNM-124A, Ethyl 5-(3-fluorophenyl)-4-(1H-tetrazol-5-yl)thiophene-2-carboxylate]	> 80
CCOC(=O)c1cc(-c2nnn[nH]2)c(-c2ccccn2)s1 [DNM-124I, Ethyl 5-(pyridin-2-yl)-4-(1H-tetrazol-5-yl)thiophene-2-carboxylate]	> 80
Oc1cccc(-c2cc(-c3nnn[nH]3)c(-c3cccc(O)c3)s2)c1 [DNM-131A, 5-(2,5-Bis(3-hydroxyphenyl)thiophen-3-yl)-1H-tetrazole]	> 80
Oc1ccc(-c2cc(-c3nnn[nH]3)c(-c3ccc(O)cc3)s2)cc1 [DNM-131C, 5-(2,5-Bis(4-hydroxyphenyl)thiophen-3-yl)-1H-tetrazole]	> 80
O=C(O)c1ccc(-c2cc(-c3nnn[nH]3)c(-c3ccc(C(=O)O)cc3)s2)cc1 [DNM-131E, 5-(2,5-Bis(4-carboxyphenyl)thiophen-3-yl)-1H-tetrazole]	> 80
NC(=O)c1ccc(-c2cc(-c3nnn[nH]3)c(-c3ccc(C(N)=O)cc3)s2)cc1 [DNM-131F, 5-(2,5-Bis(4-carbamoylphenyl)thiophen-3-yl)-1H-tetrazole]	> 80
NC(=O)c1cccc(-c2cc(-c3nnn[nH]3)c(-c3cccc(C(N)=O)c3)s2)c1 [DNM-131H, 5-(2,5-Bis(3-carbamoylphenyl)thiophen-3-yl)-1H-tetrazole]	> 70
CCOC(=O)c1ccc(-c2cc(-c3nnn[nH]3)c(-c3ccc(C(=O)OCC)cc3)s2)cc1 [DNM-131J, 5-(2,5-Bis(4-(ethoxylcarbonyl)phenyl)thiophen-3-yl)-1H-tetrazole]	> 80
COC(=O)c1ccccc1-c1cc(-c2nnn[nH]2)c(-c2ccccc2C(=O)OC)s1 [DNM-131K, 5-(2,5-Bis(2-(methoxylcarbonyl)phenyl)thiophen-3-yl)-1H-tetrazole]	> 70
c1ccc(Cc2cc(-c3nnn[nH]3)c(Cc3ccccc3)s2)cc1 [DNM-131O, 5-(2,5-Dibenzylthiophen-3-yl)-1H-tetrazole]	> 80
Cn1nnc(-c2cc(-c3cccc(O)c3)sc2-c2cccc(O)c2)n1 [DNM-132A, 5-(2,5-Bis(3-hydroxyphenyl)thiophen-3-yl)-2-methyl-2H-tetrazole]	> 80
Cn1nnc(-c2cc(-c3ccc(O)cc3)sc2-c2ccc(O)cc2)n1 [DNM-132C, 5-(2,5-Bis(4-hydroxyphenyl)thiophen-3-yl)-2-methyl-2H-tetrazole]	> 80
Cn1nnc(-c2cc(-c3cccc(C(=O)O)c3)sc2-c2cccc(C(=O)O)c2)n1 [DNM-132G, 5-(2,5-Bis(3-carboxyphenyl)thiophen-3-yl)-2-methyl-2H-tetrazole]	> 80
Cn1nnnc1-c1cc(-c2cccc(O)c2)sc1-c1cccc(O)c1 [DNM-133A, 5-(2,5-Bis(3-hydroxyphenyl)thiophen-3-yl)-1-methyl-1H-tetrazole]	> 80
Cn1nnnc1-c1cc(-c2ccc(O)cc2)sc1-c1ccc(O)cc1 [DNM-133C, 5-(2,5-Bis(4-hydroxyphenyl)thiophen-3-yl)-1-methyl-1H-tetrazole]	> 80
Cn1nnnc1-c1cc(-c2ccc(C(=O)O)cc2)sc1-c1ccc(C(=O)O)cc1 [DNM-133E, 5-(2,5-Bis(4-carboxyphenyl)thiophen-3-yl)-1-methyl-1H-tetrazole]	> 70
